Laboratory results taken from patent US9511048B2, “Use of flavone compound for prevention or treatment of obesity” (INDUSTRY-ACADEMIC COOPERATION FOUNDATION, YONSEI UNIVERSITY, priority 2012, dated 2016).

What was measured:
3T3-L1 preadipocytes = test: Inhibition of lipid production, Oil Red O staining of differentiated adipocytes; assay type: cell-based
Method: 3T3-L1 preadipocytes (American Type Culture Collection (ATCC), Manassas, Va., USA) were cultured in DMEM (Dulbecco's Modified Eagle's Medium) supplemented with 10% bovine calf serum, and seeded into 12-well microtiter plates with a density of 10^5 cells/well. Adipocyte differentiation was induced when the preadipocytes reached approximately 100% confluence after growing two more days at 90% confluence. For the experimental groups, induction of adipocyte differentiation was performed in the presence of 5,7-dimethoxyflavone at the concentration of 5, 10, or 20 μM dissolved in the culture medium containing dexamethasone, IBMX (3-isobutyl-1-methylxanthine), and insulin. Afterwards, cells of the experimental groups were maintained continuously in the presence of the same concentrations of 5,7-dimethoxyflavone dissolved in the culture medium containing 10% FBS and 0.1% insulin, replacing the medium every two days. For comparison, control cells were treated the same way as the cells of the experimental groups except for the 5,7-dimethoxyflavone treatment. On day 10 since induction of differentiation, fully differentiated adipocytes were stained with Oil Red O (Sigma, St. Louis, Mo., USA). Stained lipid droplets in the adipocytes were extracted with 100% isopropanol and subjected to the measurement of the absorbance at 500 nm using a spectrophotometer. […]

[1] = system: C57BL/6 mice with high-fat diet-induced obesity; test: Weight-reducing effect in the mouse model of high fat diet-induced obesity; assay type: in vivo; conditions: 20 mg/kg oral once a day; for food intake versus control groups: eight weeks; for rate of weight gain at the end of eight weeks compared to the control group: p<0.05
Method: Three week-old C57BL/6 mice were acclimated for one week and fed with high-fat diet (product #D12492, Research Diet Inc., New Brunswick, N.J., USA) for six weeks to induce obesity. Mice were randomly divided into experimental and control groups, in total of four groups, ten per each group. The experimental groups were orally administered with either 5,7-dimethoxyflavone or 5,7,4′-trimethoxyflavone suspended in 0.25% carboxymethyl cellulose at a dose of 20 mg/kg body weight, once a day at regular hours for eight weeks. For comparison, the control groups were orally administered with 0.25% carboxymethyl cellulose only in the same manner as the experimental groups. Food intake and body weight of each sample mouse were measured every week.

[2] = system: SREBP1c, C/EBP, FAS and ACC expression in 3T3-L1 adipocytes; test: Western blot of lipogenic transcription factors and enzymes; assay type: cell-based; conditions: proteins harvested after eight days
Method: (§1) It was examined whether the expression of proteins involved in lipid production was reduced by 5,7-dimethoxyflavone treatments in 3T3-L1 adipocytes. 3T3-L1 adipocytes were induced to differentiate in the same manner as described in Example 1-1, and were lysed with a RIPA buffered solution containing a proteinase inhibitor cocktail. Protein samples were boiled for 5 minutes, loaded ([…]) on 10% SDS-PAGE gels and separated by electrophoresis. Separated proteins were transferred to the nitrocellulose membranes and subjected to western blot experiments. Protein-transferred membranes were reacted with primary antibodies, rinsed with TBST three times, 10 minutes each. The dilution ratio of primary antibodies was 1:1000. Membranes reacted with primary antibodies were followed with secondary antibody incubation (anti-rabbit horseradish) for 2 hours at room temperature. The dilution ratio of secondary antibodies was 1:5000. Protein bands were visualized with ECL western blotting detection reagents (Amersham, Tokyo, Japan). Proteins were harvested after eight days and subjected to western blot experiments.

[3] = system: UCP2 and UCP3 expression in 3T3-L1 adipocytes; test: Western blot of thermogenic proteins; assay type: cell-based
Method: as §1
Proteins were harvested from the 3T3-L1 adipocytes differentiated as described in Example 1-1, and subjected to western blot experiments in the same manner as in Example 1-2.

Compound | reduction in lipid production compared to the control (3T3-L1 preadipocytes; 20 μM, p<0.01) [%] | food intake versus control groups [1] | rate of weight gain at the end of eight weeks compared to the control group [1] | lipid production in 3T3-L1 adipocytes (3T3-L1 preadipocytes; 5, 10 or 20 μM, day 10 after induction of differentiation, Oil Red O, absorbance 500 nm) | expression of SREBP1c, C/EBP, FAS and ACC [2] | expression of UCP2 and UCP3 [3]
COc1ccc(-c2cc(=O)c3c(OC)cc(OC)cc3o2)cc1 [5,7,4′-trimethoxyflavone] | 28 | no significant difference | significantly lower |  |  | 
COc1cc(OC)c2c(=O)cc(-c3ccccc3)oc2c1 [5,7-dimethoxyflavone] |  | no significant difference | significantly lower | suppresses lipid production in 3T3-L1 adipocytes effectively | reduction in the expression | upregulated the expression of UCP2 and UCP3
